Results taken from PubChem BioAssay AID1224921 (Broad Institute, 2016).
The source made the active and inactive calls. The rule behind the calls is not given here.

What follows are compounds tested on Clostridioides difficile clinical isolate growth, OD600, 24 h (assay: inhibitors of Clostridioides difficile proliferation – 4-point retest, confirmation (AID 1224921)).
`C[C@@H]1CN([C@H](C)CO)S(=O)(=O)c2ccc(C#Cc3cccc(F)c3)cc2O[C@H]1CN(C)C` was tested, and the AC50 was > 60 µM (inactive).
With `C[C@@H]1CN([C@H](C)CO)C(=O)c2cc(NC(=O)Nc3cccc4ccccc34)ccc2O[C@@H](C)CCCCO[C@@H]1CN(C)CC1CCCCC1` the AC50 was > 60 µM (inactive).
`C[C@@H]1CN([C@@H](C)CO)C(=O)c2cccc(NC(=O)Nc3ccc(C(F)(F)F)cc3)c2O[C@@H]1CN(C)C(=O)Nc1ccc(F)cc1` showed an AC50 of 30 µM.
For `O=C(NCC[C@H]1CC[C@H](NS(=O)(=O)c2ccc(F)cc2)[C@@H](CO)O1)Nc1ccc(Cl)cc1`, the AC50 was 16.7 µM.
In the case of `CO[C@@H]1CN(C)C(=O)c2cc(NC(=O)C3CCCC3)ccc2OC[C@@H](C)N(C(=O)Nc2ccc(C(F)(F)F)cc2)C[C@H]1C`, the AC50 was 26.6 µM.
In the case of `O=C(C[C@@H]1CC[C@H]2[C@@H](COC[C@H](O)CN2C(=O)Nc2ccc(Cl)c(Cl)c2)O1)NCc1ccc(Cl)c(Cl)c1`, the AC50 was 1.1 µM.
Work on `O=C(C[C@H]1CC[C@@H]2[C@H](COC[C@H](O)CN2C(=O)Nc2ccc(C(F)(F)F)cc2)O1)NCC1CC1` yielded an AC50 of 3.63 µM.
`CNC[C@@H]1OCCCC[C@H](C)Oc2ccc(NC(=O)Nc3ccc(C(F)(F)F)cc3)cc2C(=O)N([C@H](C)CO)C[C@@H]1C` showed an AC50 of 19.2 µM.
`O=C(C[C@@H]1CC[C@H]2[C@@H](COC[C@@H](O)CN2C(=O)Nc2ccc(Cl)c(Cl)c2)O1)NCc1ccccc1` gave an AC50 of 1.6 µM.
For `N#C[C@H]1[C@@H](c2ccc(C#Cc3cccc(F)c3)cc2)[C@H](CO)N1C(=O)C1CCC1`, the AC50 was 26.4 µM.
`O=C(C[C@H]1CC[C@@H]2[C@H](COC[C@H](O)CN2C(=O)Nc2ccc(C(F)(F)F)cc2)O1)NCCc1ccncc1` was tested, and the AC50 was 3.55 µM.
`O=C(C[C@H]1CC[C@@H]2[C@H](COC[C@H](O)CN2C(=O)Nc2ccc(C(F)(F)F)cc2)O1)NC1Cc2ccccc2C1` gave an AC50 of 6.36 µM.
`CC(C)CC#Cc1ccc2c(c1)O[C@H](CN(C)Cc1ccc(C(=O)O)cc1)[C@@H](C)CN([C@H](C)CO)S2(=O)=O` showed an AC50 of 17.9 µM.
`C[C@@H]1CCCCO[C@H](CN(C)C(=O)Nc2ccc(C(F)(F)F)cc2)[C@H](C)CN([C@@H](C)CO)C(=O)c2cc(N(C)C)ccc2O1` was tested, and the AC50 was > 60 µM (inactive).
In the case of `C[C@@H]1CCCCO[C@H](CN(C)Cc2ccc3c(c2)OCO3)[C@@H](C)CN([C@@H](C)CO)C(=O)c2cc(NC(=O)Nc3ccc(C(F)(F)F)cc3)ccc2O1`, the AC50 was 20.9 µM.
In the case of `O=C(C[C@@H]1CC[C@@H]2[C@H](COC[C@@H](O)CN2C(=O)Nc2ccc(Cl)c(Cl)c2)O1)NCc1ccc(Cl)cc1`, the AC50 was 0.98 µM.
In the case of `CO[C@@H](CN(C)Cc1cc(F)ccc1F)[C@H](C)CN(C(=O)Nc1ccc(C(F)(F)F)cc1)[C@@H](C)CO`, the AC50 was 3.71 µM.
With `C[C@@H]1CN([C@H](C)CO)S(=O)(=O)c2ccc(C#CCC3CCCC3)cc2O[C@@H]1CN(C)C(=O)CN(C)C` the AC50 was 17.6 µM.
For `CO[C@H]1CN(C)C(=O)c2cc(NC(C)=O)ccc2OC[C@@H](C)N(Cc2nccs2)C[C@@H]1C`, the AC50 was > 60 µM (inactive).
Work on `C[C@H](CO)N1C[C@H](C)[C@H](CN(C)CC2CCCCC2)Oc2ccc(NC(=O)Nc3ccc(C(F)(F)F)cc3)cc2C1=O` yielded an AC50 of 15.2 µM.
For `CO[C@@H]1CN(C)C(=O)c2ccc(NC(=O)c3ccccc3)cc2OC[C@H](C)N(C(=O)C2CC2)C[C@H]1C`, the AC50 was > 60 µM (inactive).
With `CCCN(C)C[C@@H]1OCCCC[C@H](C)Oc2ccc(NC(=O)Nc3ccc(C(F)(F)F)cc3)cc2C(=O)N([C@H](C)CO)C[C@@H]1C` the AC50 was 4.61 µM.
`CO[C@@H](CN(C)C(=O)C1CCOCC1)[C@@H](C)CN(C(=O)Nc1ccc(C(F)(F)F)cc1)[C@H](C)CO` showed an AC50 of 6.17 µM.
`COC(=O)[C@H]1[C@H](CO)[C@H]2Cn3c(ccc(-c4ccccc4)c3=O)[C@H]2N1CC1CCCCC1` was tested, and the AC50 was 16.7 µM.
With `CS(=O)(=O)N1[C@H](CO)[C@@H](c2ccc(C#CC3CCCCC3)cc2)[C@@H]1C#N` the AC50 was 17.6 µM.
`COc1ccccc1CNC(=O)C[C@@H]1CC[C@H]2[C@@H](COC[C@@H](O)CN2C(=O)Nc2ccc(C(F)(F)F)cc2)O1` gave an AC50 of 2.14 µM.
`O=C(C[C@H]1CC[C@H]2[C@@H](COC[C@H](O)CN2C(=O)Nc2ccc(Cl)c(Cl)c2)O1)NCc1ccc(F)cc1` was tested, and the AC50 was 2.08 µM.
With `O=C(C[C@@H]1CC[C@@H]2[C@H](COC[C@@H](O)CN2C(=O)Nc2ccc(Cl)c(Cl)c2)O1)NCc1ccccc1` the AC50 was 1.4 µM.
`CCNC(=O)C[C@@H]1CC[C@@H]2[C@H](COC[C@H](O)CN2C(=O)Nc2ccc(Cl)c(Cl)c2)O1` showed an AC50 of 4.07 µM.
In the case of `C[C@H](NC(=O)C[C@H]1CC[C@@H]2[C@H](COC[C@H](O)CN2C(=O)Nc2cc(Cl)cc(Cl)c2)O1)c1ccccc1`, the AC50 was 11.5 µM.
Work on `C[C@@H]1CCCCO[C@H](CN(C)CC2CCCCC2)[C@H](C)CN([C@H](C)CO)C(=O)c2cc(NC(=O)Nc3ccc(C(F)(F)F)cc3)ccc2O1` yielded an AC50 of 13.6 µM.
For `N#C[C@H]1[C@H](c2ccc(C#Cc3cccc(F)c3)cc2)[C@@H](CO)N1C(=O)C1CCC1`, the AC50 was > 16 µM (inactive).
In the case of `CC(=O)N[C@H]1CC[C@H](CCNC(=O)Nc2ccc(C(F)(F)F)cc2)O[C@H]1CO`, the AC50 was 4.52 µM.
In the case of `C[C@H](NC(=O)C[C@H]1CC[C@H]2[C@@H](COC[C@@H](O)CN2C(=O)Nc2cc(Cl)cc(Cl)c2)O1)c1ccccc1`, the AC50 was 17.9 µM.
With `O=C(NCC[C@@H]1CC[C@H](NC(=O)C2CC2)[C@H](CO)O1)Nc1ccc(C(F)(F)F)cc1` the AC50 was 4.32 µM.
For `CCNC(=O)C[C@@H]1CC[C@@H]2[C@H](COC[C@@H](O)CN2C(=O)Nc2ccc(C(F)(F)F)cc2)O1`, the AC50 was 13.6 µM.
`CO[C@@H](CN(C)C(=O)C1CC1)[C@H](C)CN(C(=O)Nc1ccc(C(F)(F)F)cc1)[C@@H](C)CO` gave an AC50 of 3.04 µM.
In the case of `O=C(C[C@H]1CC[C@H]2[C@@H](COC[C@@H](O)CN2C(=O)Nc2ccc(C(F)(F)F)cc2)O1)NCCc1ccncc1`, the AC50 was 3.88 µM.
With `CO[C@@H](CN(C)C(=O)C1CCOCC1)[C@H](C)CN(C(=O)Nc1ccc(C(F)(F)F)cc1)[C@@H](C)CO` the AC50 was 3.45 µM.
`O=C(C[C@@H]1CC[C@H]2[C@@H](COC[C@H](O)CN2C(=O)Nc2cc(Cl)cc(Cl)c2)O1)N1CCOCC1` showed an AC50 of 17.6 µM.
In the case of `C[C@@H](NC(=O)C[C@H]1CC[C@@H]2[C@H](COC[C@H](O)CN2C(=O)Nc2cc(Cl)cc(Cl)c2)O1)c1ccccc1`, the AC50 was 10.9 µM.
`C[C@@H]1CCCCO[C@@H](CN(C)C(=O)CCCN(C)C)[C@H](C)CN([C@H](C)CO)C(=O)c2cc(NC(=O)Nc3ccc(C(F)(F)F)cc3)ccc2O1` showed an AC50 of 7.16 µM.
In the case of `COc1ccccc1S(=O)(=O)N(C)C[C@@H]1OCc2ccccc2-c2c(n(C)c3ccccc23)C(=O)N([C@H](C)CO)C[C@@H]1C`, the AC50 was > 60 µM (inactive).
`CNC(=O)C[C@H]1CC[C@@H]2[C@H](COC[C@H](O)CN2C(=O)Nc2ccc(Cl)c(Cl)c2)O1` gave an AC50 of 4.12 µM.
Compound `C[C@@H]1CN([C@H](C)CO)C(=O)c2cccc(NC(=O)Nc3ccc(C(F)(F)F)cc3)c2O[C@@H]1CN(C)C(=O)Nc1ccccc1` has an AC50 of 32.9 µM.
`C[C@@H]1CN([C@@H](C)CO)C(=O)c2cccc(NC(=O)Nc3ccc(C(F)(F)F)cc3)c2O[C@@H]1CN(C)Cc1ccc(Oc2ccccc2)cc1` was tested, and the AC50 was under 0.5 µM.
With `C[C@@H]1CCCCO[C@H](CN(C)CC2CCCCC2)[C@H](C)CN([C@@H](C)CO)C(=O)c2cc(NC(=O)Nc3ccc(C(F)(F)F)cc3)ccc2O1` the AC50 was 10.4 µM.
`CO[C@H](CN(C)C(=O)C1CC1)[C@@H](C)CN(C(=O)Nc1ccc(C(F)(F)F)cc1)[C@H](C)CO` showed an AC50 of 3.59 µM.
In the case of `O=C(C[C@@H]1CC[C@H]2[C@@H](COC[C@@H](O)CN2C(=O)Nc2ccc(C(F)(F)F)cc2)O1)NCC1CC1`, the AC50 was 3.98 µM.
`O=C(C[C@@H]1CC[C@@H]2[C@H](COC[C@H](O)CN2C(=O)Nc2cc(Cl)cc(Cl)c2)O1)NCC1CC1` gave an AC50 of 16.9 µM.
`CS(=O)(=O)N1[C@H](C#N)[C@@H](c2ccc(C#CC3CCCC3)cc2)[C@@H]1CO` was tested, and the AC50 was > 70 µM (inactive).
`C[C@@H]1CN([C@@H](C)CO)C(=O)c2cc(NC(=O)Nc3ccc(C(F)(F)F)cc3)ccc2O[C@@H]1CN(C)CC1CCCCC1` showed an AC50 of 9.84 µM.
`O=C(C[C@@H]1CC[C@H]2[C@@H](COC[C@@H](O)CN2C(=O)Nc2cc(Cl)cc(Cl)c2)O1)N1CCCCC1` was tested, and the AC50 was 6.58 µM.
`O=C(C[C@H]1CC[C@@H]2[C@H](COC[C@H](O)CN2C(=O)Nc2ccc(Cl)c(Cl)c2)O1)NCc1ccc(Cl)c(Cl)c1` showed an AC50 of under 0.5 µM.
Compound `CC(=O)N[C@H]1CC[C@@H](CCNC(=O)Nc2ccc(C(F)(F)F)cc2)O[C@@H]1CO` has an AC50 of 10.8 µM.
With `N#C[C@H]1[C@H](c2ccc(C#Cc3ccc(F)cc3)cc2)[C@@H](CO)N1C(=O)C1CCCC1` the AC50 was > 70 µM (inactive).
Work on `CCNC(=O)C[C@H]1CC[C@@H]2[C@H](COC[C@H](O)CN2C(=O)Nc2ccc(Cl)c(Cl)c2)O1` yielded an AC50 of 3.02 µM.
`O=C(C[C@@H]1CC[C@H]2[C@@H](COC[C@H](O)CN2C(=O)Nc2ccc(Cl)c(Cl)c2)O1)NCc1ccc(Cl)cc1` gave an AC50 of 2.61 µM.
Compound `C[C@H](CO)N1C[C@H](C)[C@@H](CN(C)Cc2ccccc2)Oc2ccc(NC(=O)Nc3ccc(C(F)(F)F)cc3)cc2CC1=O` has an AC50 of 31.4 µM.
For `COc1ccc(C#Cc2cnc3c(c2)C(=O)N([C@@H](C)CO)C[C@@H](C)[C@H](CN(C)CC2CCCC2)O3)cc1`, the AC50 was 13.1 µM.
`O=C(C[C@H]1CC[C@H]2[C@@H](COC[C@@H](O)CN2C(=O)Nc2ccc(Cl)c(Cl)c2)O1)NC1CCC1` showed an AC50 of 4.29 µM.
Compound `Cn1cnc(CCNC(=O)C[C@@H]2CC[C@@H]3[C@H](COC[C@H](O)CN3C(=O)Nc3ccc(C(F)(F)F)cc3)O2)c1` has an AC50 of 19.6 µM.
`C[C@H]1CN([C@@H](C)CO)C(=O)c2cccc(NC(=O)Nc3ccc(C(F)(F)F)cc3)c2O[C@H]1CN(C)C(=O)Nc1ccc(F)cc1` was tested, and the AC50 was 23.4 µM.
Work on `COc1cccc(C#Cc2ccc3c(c2)O[C@@H](CN(C)C)[C@H](C)CN([C@H](C)CO)S3(=O)=O)c1` yielded an AC50 of 25.8 µM.
`O=C(C[C@@H]1CC[C@@H]2[C@H](COC[C@H](O)CN2C(=O)Nc2ccc(Cl)c(Cl)c2)O1)NCc1ccc(Cl)c(Cl)c1` showed an AC50 of 1.14 µM.
Work on `CNC(=O)C[C@H]1CC[C@H]2[C@@H](COC[C@H](O)CN2C(=O)Nc2ccc(Cl)c(Cl)c2)O1` yielded an AC50 of under 1.95 µM.
Compound `O=C(C[C@@H]1CC[C@H]2[C@@H](COC[C@@H](O)CN2C(=O)Nc2cc(Cl)cc(Cl)c2)O1)NCC1CC1` has an AC50 of 16.2 µM.
Work on `O=C(C[C@@H]1CC[C@H]2[C@@H](COC[C@@H](O)CN2C(=O)Nc2ccc(C(F)(F)F)cc2)O1)NCC1CCCCC1` yielded an AC50 of 3.56 µM.
`C[C@@H]1CCCCO[C@@H](CN(C)C)[C@H](C)CN([C@H](C)CO)C(=O)c2cc(NC(=O)Nc3ccc(C(F)(F)F)cc3)ccc2O1` showed an AC50 of 17.5 µM.
Work on `CO[C@H](CN(C)S(=O)(=O)c1cn(C)cn1)[C@H](C)CN(C(=O)Nc1ccc(C(F)(F)F)cc1)[C@H](C)CO` yielded an AC50 of 6.25 µM.
`O=C(C[C@H]1CC[C@H]2[C@@H](COC[C@@H](O)CN2C(=O)Nc2cc(Cl)cc(Cl)c2)O1)N1CCOCC1` showed an AC50 of 9.57 µM.
